Assay results reported in patent US20130245006A1, “NOVEL INDOLIZINE DERIVATIVES, AND PREPARATION AND THERAPEUTIC USE THEREOF” (SANOFI, priority 2010, published 2013).
In brackets after ≈: the same amount, converted by molar mass.

Assay: not given
Details: not given

| melting point [°C] | Compound |
| --- | --- |
| 146.4 | CCOCCN(CC)C(=O)c1ccn2c(C(=O)c3ccc(CCCNC4CCCC4)cc3)c(CC)cc2c1 [compound 37, 3-[4-(3-Cyclopentylaminopropyl)benzoyl]-2-ethylindolizine-7-carboxylic acid (2-ethoxyethyl)ethylamide] |

Assay: Solubility by HPLC relative to a reference sample
Type: physicochemical
Details: aqueous buffer, phosphate buffer, at the pH given
Procedure: The evaluation of the solubility of the compounds of the invention is carried out at pH 4 (using a phosphate buffer, […]) by HPLC using an H2O/CH3CN/CH3SO3H gradient, relative to a reference sample (a dilute solution of the product to be evaluated which serves as an internal control). The solubility S results are expressed in mg/ml. Generally, the compounds of the present invention have a solubility S≧4 mg/ml at pH≧4. Among them, mention may be made of the solubilities of the following compounds in the table below: […]

| solubility [µg/mL] | Compound |
| --- | --- |
| 8230 (≈ 15.5 mM) | CCc1cc2cc(C(=O)N(CC)Cc3nnn(C)n3)ccn2c1C(=O)c1ccc(CCCNC(C)(C)C)cc1 [Compound No. 17, 3-[4-(3-tert-Butylaminopropyl)benzoyl]-2-ethylindolizine-7-carboxylic acid ethyl(2-methyl-2H-tetrazol-5-ylmethyl)amide] |
| 7200 (≈ 12.2 mM) | CCCCc1cc2cc(C(=O)N(CC)CCC(=O)O)ccn2c1C(=O)c1ccc(CCCN(CCCC)CCCC)cc1 [Compound No. 7, 3-({2-Butyl-3-[4-(3-dibutylaminopropyl)benzoyl]indolizine-7-carbonyl}ethylamino)propionic acid] |
| 4980 (≈ 8.11 mM) | CCCCc1cc2cc(C(=O)N(CC)Cc3nc(C)no3)ccn2c1C(=O)c1ccc(CCCN(CCCC)CCCC)cc1 [Compound No. 10, 2-Butyl-3-[4-(3-dibutylaminopropyl)benzoyl]indolizine-7-carboxylic acid ethyl(3-methyl-[1,2,4]oxadiazol-5-ylmethyl)amide] |
| 8930 (≈ 16.3 mM) | CCCN(CCC)CCCc1ccc(C(=O)c2c(CC)cc3cc(C(=O)N(CC(=O)OC)C(C)C)ccn23)cc1 [compound 61, ({3-[4-(3-Dipropylamino-propyl)benzoyl]-2-ethylindolizine-7-carbonyl}isopropylamino)acetic acid methyl ester] |
| 630 (≈ 1.15 mM) | CCc1cc2cc(C(=O)N(CC(=O)OC)C(C)C)ccn2c1C(=O)c1ccc(CCCC2(NC)CCCC2)cc1 [Compound No. 16, [(2-Ethyl-3-(4-[3-(1-methylaminocyclopentyl)propyl]benzoyl}indolizine-7-carbonyl)isopropylamino]acetic acid methyl ester] |
| 6170 (≈ 10.2 mM) | CCCCc1cc2cc(C(=O)N(CC)CCOC(C)C)ccn2c1C(=O)c1ccc(CCCN(CCCC)CCCC)cc1 [compound 23, 2-Butyl-3-[4-(3-dibutylaminopropyl)benzoyl]indolizine-7-carboxylic acid ethyl(2-isopropoxyethyl)amide] |
| 5300 (≈ 9.2 mM) | CCCCc1cc2cc(C(=O)N(CC(=O)OC)C(C)C)ccn2c1C(=O)c1ccc(CCCN(CC)CCCC)cc1 [compound 62, [(2-Butyl-3-{4-[3-(butylethylamino)propyl]benzoyl}indolizine-7-carbonyl)isopropylamino]acetic acid methyl ester] |
| 5900 (≈ 10 mM) | CCCCc1cc2cc(C(=O)N(CC)CC(=O)OC)ccn2c1C(=O)c1ccc(CCCN(CCCC)CCCC)cc1 [Compound No. 5, ({2-Butyl-3-[4-(3-dibutylaminopropyl)benzoyl]indolizine-7-carbonyl}ethylamino)acetic acid methyl ester] |
| 2420 (≈ 4.01 mM) | CCCCc1cc2cc(C(=O)N(CC(=O)OC)C(C)C)ccn2c1C(=O)c1ccc(CCCN(CCCC)CCCC)cc1 [compound 28, ({2-Butyl-3-[4-(3-dibutylamino-propyl)benzoyl]indolizine-7-carbonyl}isopropyl-amino)acetic acid methyl ester] |
| 8980 (≈ 16.9 mM) | CCc1cc2cc(C(=O)N3CCC[C@@]3(C)C(=O)OC)ccn2c1C(=O)c1ccc(CCCNC(C)(C)C)cc1 [compound 50, (S)-1-{3-[4-(3-tert-Butylaminopropyl)benzoyl]-2-ethylindolizine-7-carbonyl}-2-methylpyrrolidine-2-carboxylic acid methyl ester] |
| 2800 (≈ 5.39 mM) | CCc1cc2cc(C(=O)N(CC(=O)OC)C(C)C)ccn2c1C(=O)c1ccc(CCCNC(C)(C)C)cc1 [compound 31, ({3-[4-(3-tert-Butylaminopropyl)benzoyl]-2-ethylindolizine-7-carbonyl}isopropylamino)acetic acid methyl ester] |
| 8400 (≈ 15.7 mM) | CCCCc1cc2cc(C(=O)N(CC(=O)O)C(C)C)ccn2c1C(=O)c1ccc(CCCN(CC)CC)cc1 [compound 75, ({2-Butyl-3-[4-(3-diethylamino-propyl)benzoyl]indolizine-7-carbonyl}isopropylamino)acetic acid] |
| 8020 (≈ 14 mM) | CCc1cc2cc(C(=O)N(CC(=O)OC)C(C)C)ccn2c1C(=O)c1ccc(CCCC2(NC(C)C)CCCC2)cc1 [compound 79, [(2-Ethyl-3-{4-[3-(1-isopropylamino-cyclopentyl)propyl]benzoyl}indolizine-7-carbonyl)isopropylamino]acetic acid methyl ester] |
| 8300 (≈ 15.2 mM) | CCCCN(CCCC)CCCc1ccc(C(=O)c2ccc3cc(C(=O)N(CC(=O)OC)C(C)C)ccn23)cc1 [compound 56, ({3-[4-(3-Dibutylamino-propyl)benzoyl]indolizine-7-carbonyl}isopropyl-amino)acetic acid methyl ester] |
| 6200 (≈ 12.3 mM) | CCc1cc2cc(C(=O)N(CC(=O)O)C(C)C)ccn2c1C(=O)c1ccc(CCCNC(C)(C)C)cc1 [compound 76, ({3-[4-(3-tert-Butylamino-propyl)benzoyl]-2-ethylindolizine-7-carbonyl}isopropylamino)acetic acid] |
| 4900 (≈ 8.51 mM) | CCCCc1cc2cc(C(=O)N(CC)CC(=O)O)ccn2c1C(=O)c1ccc(CCCN(CCCC)CCCC)cc1 [Compound No. 6, ({2-Butyl-3-[4-(3-dibutylaminopropyl)benzoyl]indolizine-7-carbonyl}ethylamino)acetic acid] |
| 6300 (≈ 10.7 mM) | CCCCN(CCCC)CCCc1ccc(C(=O)c2c(CC)cc3cc(C(=O)N(CC)CC(=O)OC(C)C)ccn23)cc1 [compound 58, ({3-[4-(3-Dibutylamino-propyl)benzoyl]-2-ethylindolizine-7-carbonyl}ethyl-amino)acetic acid isopropyl ester] |
| 240 (≈ 0.4 mM) | CCCCc1cc2cc(C(=O)N(CC)Cc3nnn[nH]3)ccn2c1C(=O)c1ccc(CCCN(CCCC)CCCC)cc1 [Compound No. 11, 2-Butyl-3-[4-(3-dibutylaminopropyl)benzoyl]indolizine-7-carboxylic acid ethyl(1H-tetrazole-5-ylmethyl)amide] |
| 8820 (≈ 16.5 mM) | CCc1cc2cc(C(=O)N(CC(=O)OC)C(C)C)ccn2c1C(=O)c1ccc(CCCN(CC)C(C)C)cc1 [compound 55, [(2-Ethyl-3-{4-[3-(ethylisopropylamino)propyl]benzoyl}indolizine-7-carbonyl)isopropylamino]acetic acid methyl ester] |
| 7220 (≈ 11.8 mM) | CCCCc1cc2cc(C(=O)N(CC)Cc3nnn(C)n3)ccn2c1C(=O)c1ccc(CCCN(CCCC)CCCC)cc1 [Compound No. 9, 2-Butyl-3-[4-(3-dibutylaminopropyl)benzoyl]indolizine-7-carboxylic acid ethyl(2-methyl-2H-tetrazol-5-ylmethyl)amide] |
| 1140 (≈ 1.89 mM) | CCCCc1cc2cc(C(=O)N(CC)CC(=O)OCC)ccn2c1C(=O)c1ccc(CCCN(CCCC)CCCC)cc1 [compound 26, ({2-Butyl-3-[4-(3-dibutylamino-propyl)benzoyl]indolizine-7-carbonyl}ethylamino)acetic acid ethyl ester] |
| 7880 (≈ 14.1 mM) | CCc1cc2cc(C(=O)N(CC)Cc3nnn(C)n3)ccn2c1C(=O)c1ccc(CCC(C)(C)NC(C)(C)C)cc1 [Compound No. 18, 3-[4-(3-tert-Butylamino-3-methylbutyl)benzoyl]-2-ethylindolizine-7-carboxylic acid ethyl(2-methyl-2H-tetrazol-5-ylmethyl)amide] |
| 6300 (≈ 10.5 mM) | CCCCc1cc2cc(C(=O)N3CCC[C@H]3C(=O)OC)ccn2c1C(=O)c1ccc(CCCN(CCCC)CCCC)cc1 [Compound No. 2, (S)-1-{2-Butyl-3-[4-(3-dibutylamino-propyl)benzoyl]indolizine-7-carbonyl}-pyrrolidine-2-carboxylic acid methyl ester] |
| 4200 (≈ 7.96 mM) | CCCCc1cc2cc(C(=O)N(CC)Cc3nc(C)no3)ccn2c1C(=O)c1ccc(C2CCNCC2)cc1 [compound 80, 2-Butyl-3-(4-piperidin-4-ylbenzoyl)indolizine-7-carboxylic acid ethyl(3-methyl-[1,2,4]oxadizol-5-ylmethyl)amide] |
| 4900 (≈ 9.22 mM) | CCc1cc2cc(C(=O)N(CC(=O)OC)C(C)C)ccn2c1C(=O)c1ccc(CCCNC2CCCC2)cc1 [Compound No. 8, ({3-[4-(3-Cyclopentylaminopropyl)benzoyl]-2-ethylindolizine-7-carbonyl}isopropylamino)acetic acid methyl ester] |
| 5720 (≈ 9.47 mM) | CCCCc1cc2cc(C(=O)N(CC)[C@@H](C)C(=O)OC)ccn2c1C(=O)c1ccc(CCCN(CCCC)CCCC)cc1 (stereo in doubt) [compound 69, (S)-2-({2-Butyl-3-[4-(3-dibutylaminopropyl)benzoyl]indolizine-7-carbonyl}ethyl-amino)propionic acid methyl ester] |
| 7200 (≈ 12.9 mM) | CCc1cc2cc(C(=O)N(CC(=O)OC)C(C)C)ccn2c1C(=O)c1ccc(CCC(C)(C)NC2CCCC2)cc1 [Compound No. 19, ({3-[4-(3-Cyclopentylamino-3-methylbutyl)benzoyl]-2-ethylindolizine-7-carbonyl}isopropylamino)acetic acid methyl ester] |
| 1570 (≈ 2.88 mM) | CCc1cc2cc(C(=O)N(CC(=O)OC)C(C)C)ccn2c1C(=O)c1ccc(CCCNC2CCCCC2)cc1 [compound 35, ({3-[4-(3-Cyclohexylaminopropyl)benzoyl]-2-ethylindolizine-7-carbonyl}isopropylamino)acetic acid methyl ester] |
| 5700 (≈ 9.02 mM) | CCCCc1cc2cc(C(=O)N(CC(=O)OC(C)C)C(C)C)ccn2c1C(=O)c1ccc(CCCN(CCCC)CCCC)cc1 [compound 59, ({2-Butyl-3-[4-(3-dibutylaminopropyl)-benzoyl]indolizine-7-carbonyl}-isopropylamino)acetic acid isopropyl ester] |
